This note sets out measurements from patent US20050113450A1, “Antibacterial agents” (priority 2002, published 2005).

The test relates to SA 9218. Description: MIC by standard agar dilution method. The class given is cell-based. Conditions: Mueller Hinton agar, 10^4 to 10^5 cells per spot, incubated overnight at 35° C., lowest concentration that inhibits visible growth. In a few lines:
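Agar dilution: two-fold compound dilutions mixed into molten Mueller Hinton agar, spots of ~10^4–10^5 cells from 0.5 McFarland suspension diluted 1:20 in TSB. Incubated overnight at 35 °C; MIC is lowest concentration inhibiting visible growth.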
In general terms: In agar dilution the substance is mixed into plates at graded concentrations.

Structures are written as SMILES. In brackets after ≈: the same amount, converted by molar mass.

`COc1ccc(C(=O)Nc2ccc(Br)cc2C(=O)O)cc1S(=O)(=O)Nc1ccc2c(c1)OCCO2`: 8 µg/mL (≈ 14.2 µM) was the least that counted as inhibitory (MIC). For the compound `CS(=O)(=O)c1cccc(C(=O)c2cccc(C(=O)Nc3ccc(Cl)cc3C(=O)O)c2)c1`, the lowest concentration to inhibit growth (MIC) was 16 µg/mL (≈ 34.9 µM). As to `CCCCN(CCO)S(=O)(=O)c1cccc(C(=O)Nc2ccc(C#N)cc2C(=O)O)c1` [PHA-656859], the MIC (in general, the smallest concentration in the dilution series that meets the test's criterion for growth inhibition) was determined as 16 µg/mL (≈ 35.9 µM). On to `N#Cc1ccc(NC(=O)c2cccc(S(=O)(=O)N3CCOCC3)c2)c(C(=O)O)c1` [PHA-568420], for which the “SA 9218 MIC” value was 0.5 µg/mL. For `CCOCCOCCOc1ccc(C(=O)Nc2ccc(Br)cc2C(=O)O)cc1`, the lowest concentration to inhibit growth (MIC) was 128 µg/mL (≈ 283 µM). `COc1ccc(Oc2cccc(C(=O)Nc3ccc(C#N)cc3C(=O)O)c2)cc1` [PHA-564215] came in with an MIC of 0.5 µg/mL (≈ 1.29 µM). Consider `O=C(Nc1ccc(Br)cc1C(=O)O)c1ccc(NC(=O)N2CCc3ccccc32)cc1` [PNU-290877, 5-Bromo-2-({4-[(2,3-dihydro-1H-indol-1-ylcarbonyl)amino]benzoyl}amino)benzoic acid], for which the MIC is more than 128 µg/mL. Same read-out and setting: the value for `CCCNC(c1cccnc1)c1cccc(C(=O)Nc2ccc(Cl)cc2C(=O)O)c1` (stereo not shown) was 8 µg/mL (≈ 18.9 µM); that for `O=C(NCCOc1ccc(C(=O)Nc2ccc(Br)cc2C(=O)O)cc1)OCc1ccccc1` was 64 µg/mL (≈ 125 µM). The compound `CCOCC(=O)c1ccc(C(=O)Nc2ccc(Cl)cc2C(=O)O)cc1` yielded an MIC of 16 µg/mL (≈ 44.2 µM).

`N#Cc1ccc(NC(=O)c2cccc(SCc3ccncc3)c2)c(C(=O)O)c1` [PHA-569044] yielded an MIC of 0.25 µg/mL (≈ 0.642 µM). The same measure, in the same setting: the same measure for `N#Cc1ccc(NC(=O)c2cccc(S(=O)(=O)n3ccc4cc(Cl)ccc43)c2)c(C(=O)O)c1` [PHA-543681]: 0.125 µg/mL (≈ 0.26 µM); for `CN(C)c1ccc(CNS(=O)(=O)c2cccc(C(=O)Nc3ccc(Br)cc3C(=O)O)c2)cc1`: 64 µg/mL (≈ 120 µM). On the same count and under the same terms, the same measure for `N#Cc1ccc(NC(=O)c2cccc(S(=O)(=O)N3CCCCCC3)c2)c(C(=O)O)c1` [PHA-571224]: 8 µg/mL (≈ 18.7 µM); for `O=C(Nc1ccc(Br)cc1C(=O)O)c1cccc(C(F)(F)F)c1`: 8 µg/mL (≈ 20.6 µM); for `Cc1c(C(=O)Nc2ccc(Br)cc2C(=O)O)cccc1S(=O)(=O)N(C)c1ccc(Cl)cc1` [PHA-717196]: 4 µg/mL (≈ 7.44 µM). The same measure, in the same setting: the value for `O=C(Nc1ccc(Cl)cc1C(=O)O)c1cccc(C(=O)C2CCCC2)c1` was 8 µg/mL (≈ 21.5 µM); that for `CN(c1ccc(Cl)cc1)S(=O)(=O)c1cc(Br)cc(C(=O)Nc2ccc(Cl)cc2C(=O)O)c1` [PHA-509059] was 0.5 µg/mL (≈ 0.896 µM); that for `CN(C)c1cccc(C(=O)Nc2ccc(C#N)cc2C(=O)O)c1` was 8 µg/mL (≈ 25.9 µM). `COc1ccc(C(=O)c2cccc(C(=O)Nc3ccc(Cl)cc3C(=O)O)c2)cc1`: 8 µg/mL (≈ 19.5 µM) was the least that counted as inhibitory (MIC). Still for that read-out and setting: the value for `O=C(Nc1ccc(Br)cc1C(=O)O)c1cc(S(=O)(=O)Nc2ccc3c(c2)OCCO3)c(F)cc1Cl` was 128 µg/mL (≈ 219 µM); that for `O=C(Nc1ccc(Cl)cc1C(=O)O)c1cc(Br)cc(S(=O)(=O)N2CCOCC2)c1` [PHA-662250] was 1 µg/mL (≈ 1.99 µM); that for `O=C(Nc1ccc(Br)cc1C(=O)O)c1cc(S(=O)(=O)N2CCc3ccccc32)c(F)cc1Cl` was 8 µg/mL (≈ 14.4 µM). In the case of `O=C(Nc1ccc(C(=O)Nc2ccc(Br)cc2C(=O)O)cc1)Nc1cc(Cl)cc(Cl)c1` [PHA-713397], the minimal inhibitory concentration (MIC) was more than 128 µg/mL. Same read-out and setting: the same measure for `N#Cc1cccc(C(=NO)c2ccc(C(=O)Nc3ccc(Cl)cc3C(=O)O)cc2)c1`: 8 µg/mL (≈ 19.1 µM); for `Cc1cccc(C(=O)Nc2ccc(C#N)cc2C(=O)O)c1`: 32 µg/mL (≈ 114 µM). On the same count and under the same terms, the value for `Cc1ccc(S(=O)(=O)NCCc2ccc(N)cc2)cc1C(=O)Nc1ccc(Br)cc1C(=O)O` was more than 128 µg/mL. Still for that read-out and setting: the same measure for `CCN(CC)c1ccc(NS(=O)(=O)c2ccc(C(=O)Nc3ccc(Br)cc3C(=O)O)cc2)cc1`: 32 µg/mL (≈ 58.6 µM). As for `COc1cc(OC)cc(C(=O)Nc2ccc(Br)cc2C(=O)O)c1`, the MIC came out at 16 µg/mL (≈ 42.1 µM).

As to `CC(C(O)c1ccccc1)N(C)S(=O)(=O)c1ccc(C(=O)Nc2ccc(C#N)cc2C(=O)O)cc1` (stereo not shown) [PHA-571228], the “SA 9218 MIC” value was determined as 32 µg/mL. `O=C(Nc1ccc(C(=NO)c2ccccc2)cc1C(=O)O)c1ccc(S(=O)(=O)N2CCc3ccccc32)cc1` had an MIC of 128 µg/mL (≈ 236 µM).
